Where only a bound is given, the exact number is not on record here.

The test system of one experiment is THP-1 human monocytes. Briefly: Inflammatory gene expression (qPCR) in LPS-stimulated THP-1 macrophages. The class given is cell-based. The procedure:
FIG. 17—Fold change in inflammatory gene expression when THP-1 monocytes are treated with Compounds of Interest. […] PL, PMA-differentiated and treated with LPS. P18, PEDF peptide. (*, p<0.05 relative to PL)
Cell Culture. THP-1 human monocytes were purchased from ATCC (Manassas, Va.) and cultured in DMEM/10% FBS/1% Anti-Anti (Gibco). The monocytes were differentiated into macrophages with 5 ng/ml […] (PMA) for 48 h and pretreated with drugs for 6 h. Lipopolysaccharide (LPS, 10 ng/ml) stimulation was performed for 1 h and cells were collected for assays. Human adipose-derived mesenchymal stromal/stem cells (ASC) were purchased from LaCell, LLC (Metairie, La.) and grown on fibronectin-coated plates in MCDB-201/DMEM/10% FBS media. RNA isolation and qPCR. RNA was isolated from cell pellets using an RNAeasy kit (Qiagen) according to manufacturers' specifications for tissue samples. 1 μg RNA was reverse transcribed using a AmfiRivert kit (Genedepot) and 2 μl used in a SYBR green quantitative PCR reaction for detecting differences in gene expression relative to beta-actin control. Luciferase Assays. THP-1 human monocytes were seeded in OptiMEM/1% anti-anti (Gibco) and transfected using Lipofectamine LTX (Invitrogen, Carlsbad, Calif.) in a 96-well format in white opaque plates. […] The samples were read in a BiotekNeo (Bindley Bioscience Center). […]

A further experiment deals with PC-3 cells. Briefly: RT-qPCR of PEDF-signaling associated genes. The class given is cell-based. As to conditions: PC-3, 50 μM, 48 hours. Here is the method:
Expression of PEDF-signaling associated genes from PC-3 cells treated with 50 μM C3, compared to DMSO control and normalized to GAPDH (n=3, mean±SEM). A Holm-Sidak multiple t test was used for statistical analysis (*p<0.05,**O<0.01, ***<0.001). […] Average tube count for 0.1% DMSO, 0.5% DMSO, and 1, 10 and 50 μM treatment with C3 (n=7, mean±SEM). 1 and 10 μM C3 were compared with respective 0.5% DMSO (unpaired two-tailed t test, ****<0.0001). 50 μM C3 was compared with respective 0.1% DMSO (unpaired two-tailed t test p<0.0001).
RT-qPCR. PC-3 cells were seeded in 6 well plates at 3×10^5 cells per well and incubated with 50 μM C3 or DMSO equivalent in 1×RPMI-1640, 1× anti-anti, and 2% FBS (ThermoFisher) for 48 hours. PC-3 cells were lifted using 20 mM EDTA in 1×DPBS and pelleted before isolating total RNA using the RNeasy Mini Kit (Qiagen). 1 μg of RNA per sample was reverse transcribed using the amfiRivert cDNA synthesis master mix (GenDEPOT). Real-time PCR wells contained 1 μL cDNA template, 2×SYBR Green Master Mix (Applied Biosystems), and 20 μM forward and reverse primers. Primer sequences are provided in Table 2. qRT-PCR was performed on an Eppendorf Realplex 2S (Eppendorf), using: 40×95° C. for 3 mins; 95° C. for 3 s; 60° C. for 30 s; 72° C. for 8 s and analyzed using EP Realplex software (version 2.2). Fold changes were normalized to GAPDH using the ddCT method.
Genes involved in migration/invasion and/or extracellular matrix (ECM) communication also were assayed.
(Real-time PCR tracks product formation cycle by cycle.)

`O=C(c1cc(F)cc2c1OCOC2)N1CCN(C2c3ccccc3-c3ccccc32)CC1` [Compound C3, [4-(9h-fluoren-9-yl)piperazino](6-fluoro-4h-1,3-benzodioxin-8-yl)methanone]: in the experiment with THP-1 human monocytes, the “reduction of IL-1β expression” value is reported as ~8 fold. Further, in the experiment with PC-3 cells, the “VEGF mRNA, fold change” value was ~4 FC; the “VEGFR2 transcription, fold change” value is listed as > −15 fold change; the “thrombospondin-1 (THBS1) mRNA, fold change” value is on record as > 10 FC.
